PubChem BioAssay (NCI)
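Five concentrations, 48 hours, 96-well plates. Abbreviation: GI50, concentration required for 50% inhibition of growth. TGI is the concentration that stops growth completely.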

How the values were obtained:
Test in all cases: NCI tumour cell line growth inhibition, 48 h
[1] = tested on: 786-0 renal
[2] = tested on: A549 NSCLC
[3] = tested on: ACHN renal
[4] = tested on: HCT-116 colon
[5] = tested on: HOP-92 NSCLC
[6] = tested on: NCI-H23 lung
[7] = tested on: PC-3 prostate
[8] = tested on: SN12C renal
[9] = tested on: SNB-75 CNS
[10] = tested on: TK-10 renal

| Compound | GI50 [1] [µM] | TGI [1] [µM] | GI50 [2] [µM] | TGI [2] [µM] | GI50 [3] [µM] | TGI [3] [µM] | GI50 [4] [µM] | TGI [4] [µM] | GI50 [5] [µM] | TGI [5] [µM] | GI50 [6] [µM] | TGI [6] [µM] | GI50 [7] [µM] | TGI [7] [µM] | GI50 [8] [µM] | TGI [8] [µM] | GI50 [9] [µM] | TGI [9] [µM] | GI50 [10] [µM] | TGI [10] [µM] |
| --- | --- | --- | --- | --- | --- | --- | --- | --- | --- | --- | --- | --- | --- | --- | --- | --- | --- | --- | --- | --- |
| OC(COc1cccc2ccccc12)CN1CCN(c2ccccc2Cl)CC1 (stereo not given) | 15.6 | 30.4 | 18.2 | 35.4 | 13.9 | 27.5 | 10.8 | 24.5 | 2.47 | 16.8 | 13.3 | 29.8 | 7.88 | 23.2 | 12.5 | 25.4 | 11.2 | 24.7 | 5.58 | 17.1 |
| COc1ccc2c(c1)CC[C@@H]1[C@@H]2CC[C@]2(C)C=C(/C=C/C(=O)c3ccccc3)C[C@@H]12 | 15.5 | 29.1 | 18.5 | 40.2 | 16.4 | 31.1 | 15.6 | 29.1 | 15.5 | 29.7 | 15.4 | 30.8 | 15.4 | 30.5 | 18.5 | 33.4 | 12.2 | 25.2 | 21.3 | 39.3 |
| CC1(C)[C@@H](OC(N)=O)C=C[C@]2(C=O)[C@H]3CC[C@]4(C)[C@@H](c5ccc(=O)oc5)[C@@H](Cl)C[C@]4(O)C3=CC[C@@H]12 | 0.00478 | 0.0106 | 0.00361 | 0.00752 | < 0.0025 | 0.00649 | 0.00409 | 0.00818 | 0.0057 | 0.0165 | 0.00298 | 0.0102 | 0.00517 | 0.0148 | 0.00293 | 0.0136 | 0.00407 | 0.00932 | 0.00527 | 0.0157 |
| Cc1c(C(=O)O[C@H]2[C@@H]3[C@H](C)CC[C@H]3[C@]3(C)O[C@@]2(C2CCCCC2)C[C@H]3OC(=O)CO)ccc2ccccc12 | 6.52 | 13.1 | 7.11 | 13.7 | 0.0589 | 0.766 | 7.57 | 14.5 | 4.19 | 10.4 | 8.29 | 17.7 | 6.96 | 15.6 | 0.157 | 8.36 | 2.98 | 11 | 8.12 | 15.4 |
| CCCn1c(N)c(C(=O)CNc2ccc(I)cc2)c(=O)[nH]c1=O | 4.21 | > 100 | 2.1 | > 100 | 8.69 | > 100 | 0.677 | > 100 | 7.86 | > 24.3 | > 61.4 | > 100 | 5.44 | > 100 | 29.2 | > 100 | 2.12 | > 40.1 | 16.7 | > 100 |
| CCOc1cc(C(C)(C)C)ccc1C1=N[C@@](C)(c2ccc(Cl)cc2)[C@@](C)(c2ccc(Cl)cc2)N1C(=O)N1CCN(CCS(C)(=O)=O)CC1 | 4 | 14.5 | 0.975 | 5.31 | 0.45 | 2.56 | 0.804 | 4.73 | 2.28 | 8.82 | 4.69 | 20.2 | 2.01 | 6.25 | 3.31 | 12.8 | 2.51 | 14.9 | 3.12 | 10.3 |
| COc1ccc(/C=N/N=C(\[O-])c2ccncc2)cc1F.COc1ccc(/C=N\N=C(/[O-])c2ccncc2)cc1F.[Cu+2] | 20.2 | 44.3 | 27.3 | > 100 | 39.5 | > 100 | 27 | > 100 | 19.1 | 38.6 | 25.4 | 58.2 | 16.8 | 35.1 | 40.4 | > 100 | 14.6 | 28.2 | 19.9 | 48 |
| COc1c(N2CCN(Cn3c(O)c(N=NC(=O)c4ccncc4)c4cc(F)ccc43)C(C)C2)c(F)cc2c(=O)c(C(=O)O)cn(C3CC3)c12 (stereo not given) | 22.3 | > 50 | > 50 | > 50 | 12.5 | > 50 | 8.24 | 15 | 22.7 | > 50 | 16.7 | > 50 | > 50 | > 50 | 42.8 | > 50 | > 50 | > 50 | 12.5 | 37.2 |
| C#Cc1cc2c(N)c(C(=O)c3cc(OC)c(OC)c(OC)c3)[nH]c2cc1OC | 0.542 | > 100 | 0.729 | > 100 | 0.574 | > 100 | 0.431 | > 100 | 0.334 | 37.7 | 1.94 | > 100 | 0.45 | > 100 | 11.2 | > 100 | 0.208 | 1.18 | 17.8 | > 100 |
| Nc1c(C(=O)Nc2cccc(Br)c2)sc2nc3c(cc12)C(O)CCC3 (stereo not given) | 0.645 | 36.1 | 0.494 | 22 | 0.848 | 31.1 | 0.483 | > 51.6 | 0.383 | 11.4 | 0.761 | > 100 | 0.349 | 24.4 | 0.636 | > 100 | 0.359 | 17.5 | 14.2 | 51.6 |
| Cc1ccc2c(c1)C(=O)c1c-2n(CCCN=[N+]=[N-])c(=O)c2cc([N+](=O)[O-])ccc12 | 29.8 | > 100 | 97.8 | > 100 | 30.8 | > 100 | 20.5 | > 100 | 30.2 | > 100 | > 100 | > 100 | 33.4 | > 100 | 59.4 | > 100 | 1.26 | 58.6 | 99.8 | > 100 |
| CN(C)CCNc1nc2ccccc2c2c(=O)c3ccccc3sc12 | 1.49 | 2.98 | 1.81 | 3.96 | 1.61 | 4.3 | 1.41 | 2.79 | 1.68 | 6.73 | 1.68 | 4.86 | 1.84 | 4.13 | 2.13 | 8.85 | 1.74 | 6.94 | 2.52 | 6.15 |
